# Source: patent US8952024B2, “Herbicidal pyrimidone derivatives” (E I du Pont de Nemours and Company, priority 2009, dated 2015)
# Legend:
# Assay type in all cases: in vivo
# [1] = system: barnyardgrass (Echinochloa crus-galli); assay: Test B flooded paddy test; details: for Plant response rating, Flood, Barnyardgrass: 250 g ai/ha, flooded paddy test, visual rating on 0 to 100 scale (0 no effect, 100 complete control) after 13 to 15 days; for Plant response rating, Barnyardgrass: Flood (flooded paddy test), 13 to 15 days
# Method in brief: (§1)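 Post-flood paddy application: compounds are introduced into water 3 cm deep over the soil, reaching plants at the 2-leaf stage. The water level is maintained, and after 13–15 days under greenhouse conditions, response is judged by eye relative to controls, where 100 means complete control.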
# [2] = system: umbrella sedge (Cyperus difformis); assay: Test B flooded paddy test; details: for Plant response rating, Flood, Sedge, Umbrella: 250 g ai/ha, flooded paddy test, visual rating on 0 to 100 scale (0 no effect, 100 complete control) after 13 to 15 days; for Plant response rating, Sedge, Umbrella: Flood (flooded paddy test), 13 to 15 days
# Method in brief: as §1
# [3] = system: green foxtail (Setaria viridis); assay: Test B pre-/postemergence plant response
# Method in brief: (§2)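 Visual ratings on a 0–100 scale (100 = complete control) were made versus untreated controls 13–15 days after treatment in a greenhouse. Compounds in surfactant-containing non-phytotoxic solvent were applied preemergence to seeds in loam–sand blend or postemergence to 1- to 4-leaf plants (2–18 cm).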
# [4] = system: large crabgrass (Digitaria sanguinalis); assay: Test B pre-/postemergence plant response
# Method in brief: as §2
# [5] = system: goosegrass (Eleusine indica); assay: Test B pre-/postemergence plant response
# Method in brief: as §2
# [6] = system: bermudagrass (Cynodon dactylon); assay: Test B pre-/postemergence plant response; details: for Bermudagrass plant response rating (0 to 100 scale): 0 is no effect
# Method in brief: as §2
# [7] = system: wheat (Triticum aestivum); assay: Test B pre-/postemergence plant response
# Method in brief: as §2
# wild oat (Avena fatua) = assay: Test B pre-/postemergence plant response
# Method in brief: as §2
# [8] = system: cocklebur (Xanthium strumarium); assay: Test B pre-/postemergence plant response
# Method in brief: as §2
# [9] = system: morningglory (Ipomoea coccinea); assay: Test B pre-/postemergence plant response
# Method in brief: as §2
# [10] = system: lambsquarters (Chenopodium album); assay: Test B pre-/postemergence plant response
# Method in brief: as §2
# [11] = system: yellow nutsedge (Cyperus esculentus); assay: Test B pre-/postemergence plant response
# Method in brief: as §2
# [12] = 62 g ai/ha, scale of 0 to 100 where 0 is no effect and 100 is complete control
# [13] = 125 g ai/ha, scale 0 to 100, 0 is no effect, 100 is complete control
# [14] = Flood, 31 g ai/ha, scale 0 to 100 (0 no effect, 100 complete control)
# [15] = Postemergence, 31 g ai/ha, 0 to 100 scale (0 no effect, 100 complete control)
# [16] = Postemergence, 125 g ai/ha, scale 0 to 100 (0 no effect, 100 complete control)
# [17] = Postemergence, 250 g ai/ha, scale 0 to 100 (0 no effect, 100 complete control), 13 to 15 days
# [18] = 62 g ai/ha, postemergence, 100 is complete control, 13 to 15 days
# [19] = 31 g ai/ha, postemergence, scale 0 to 100, 0 is no effect, 100 is complete control
# [20] = 62 g ai/ha, postemergence, 0 is no effect, 100 is complete control, 13 to 15 days
# [21] = Postemergence, 125 g ai/ha, visual rating after 13 to 15 days, scale 0 (no effect) to 100 (complete control)
# [22] = Postemergence, 250 g ai/ha, scale 0 to 100 (0 no effect, 100 complete control)
# [23] = Preemergence, 31 g ai/ha, scale 0 to 100 (0 no effect, 100 complete control)
# [24] = Preemergence, 62 g ai/ha, scale 0 to 100 (0 no effect, 100 complete control)
# [25] = Preemergence, 125 g ai/ha, scale 0 to 100, 0 no effect, 100 complete control
# [26] = Preemergence, 250 g ai/ha, 0 to 100 scale
smiles,measurement,setting,value
CCCn1c(-c2cccc(Cl)c2)ncc(C(=O)C2=C(O)CCCC2=O)c1=O [Compound 190],"Plant response rating, Flood, Barnyardgrass",[1],30
same,"Plant response rating, Barnyardgrass",[1]; [12],0
same,"Plant response rating, Barnyardgrass",[1]; [13],20
same,Barnyardgrass plant response rating,[1]; [14],0
same,"Plant response rating, Flood, Sedge, Umbrella",[2],95
same,"Plant response rating, Sedge, Umbrella",[2]; [12],0
same,"Plant response rating, Sedge, Umbrella",[2]; [13],30
same,"Sedge, Umbrella plant response rating",[2]; [14],0
same,"Plant response rating, Foxtail, Green",[3]; [15],25
same,"Plant response rating, Foxtail, Green",[3]; [16],45
same,"Plant response rating, Foxtail, Green",[3]; [17],70
same,"Plant response rating, Crabgrass, Large",[4]; [15],60
same,"Plant response rating, Crabgrass, Large",[4]; [16],80
same,"Plant response rating, Crabgrass, Large",[4]; [17],90
same,"Plant response rating, Goosegrass",[5]; [15],70
same,"Plant response rating, Goosegrass",[5]; [16],80
same,"Plant response rating, Goosegrass",[5]; [17],98
same,Bermudagrass plant response rating (0 to 100 scale),[6]; [18],100
same,"Plant response rating, Bermudagrass",[6]; [15],98
same,"Plant response rating, Bermudagrass",[6]; [16],100
same,"Plant response rating, Bermudagrass",[6]; [17],100
same,"Plant response rating, Wheat",[7]; [15],0
same,"Plant response rating, Wheat",[7]; [16],30
same,"Plant response rating, Wheat",[7]; [17],30
same,"Plant response rating, Oat, Wild",wild oat (Avena fatua); [15],0
same,"Plant response rating, Oat, Wild",wild oat (Avena fatua); [16],40
same,"Plant response rating, Oat, Wild",wild oat (Avena fatua); [17],50
same,"Plant response rating, Cocklebur",[8]; [15],40
same,"Plant response rating, Cocklebur",[8]; [16],95
same,"Plant response rating, Cocklebur",[8]; [17],100
same,"Plant response rating, Morningglory",[9]; [15],40
same,"Plant response rating, Morningglory",[9]; [16],85
same,"Plant response rating, Morningglory",[9]; [17],100
same,"Plant response rating, Lambsquarters",[10]; [15],80
same,"Plant response rating, Lambsquarters",[10]; [16],100
same,"Plant response rating, Lambsquarters",[10]; [17],100
same,"Plant response rating, Nutsedge, Yellow",[11]; [15],35
same,"Plant response rating, Nutsedge, Yellow",[11]; [16],65
same,"Plant response rating, Nutsedge, Yellow",[11]; [17],75
CCCc1ncc(C(=O)C2=C(O)CCCC2=O)c(=O)n1CC1CCCO1 (centres unmarked) [Compound 74],"Plant response rating, Flood, Barnyardgrass",[1],40
same,"Plant response rating, Barnyardgrass",[1]; [12],0
same,"Plant response rating, Flood, Sedge, Umbrella",[2],60
same,"Plant response rating, Sedge, Umbrella",[2]; [12],30
same,"Plant response rating, Foxtail, Green",[3]; [19],20
same,"Foxtail, Green plant response rating (0 to 100 scale)",[3]; [20],20
same,"Plant response rating, Foxtail, Green",[3]; [21],80
same,"Plant response rating, Foxtail, Green",[3]; [22],85
same,"Plant response rating, Foxtail, Green",[3]; [23],0
same,"Plant response rating, Foxtail, Green",[3]; [24],0
same,"Plant response rating, Foxtail, Green",[3]; [25],0
same,"Foxtail, Green plant response rating",[3]; [26],0
same,"Plant response rating, Crabgrass, Large",[4]; [19],80
same,"Crabgrass, Large plant response rating (0 to 100 scale)",[4]; [20],80
same,"Plant response rating, Crabgrass, Large",[4]; [21],95
same,"Plant response rating, Crabgrass, Large",[4]; [22],95
same,"Plant response rating, Crabgrass, Large",[4]; [23],98
same,"Plant response rating, Crabgrass, Large",[4]; [24],98
same,"Plant response rating, Crabgrass, Large",[4]; [25],100
same,"Crabgrass, Large plant response rating",[4]; [26],100
same,"Plant response rating, Goosegrass",[5]; [19],65
same,Goosegrass plant response rating (0 to 100 scale),[5]; [20],75
same,"Plant response rating, Goosegrass",[5]; [21],80
same,"Plant response rating, Goosegrass",[5]; [22],85
same,"Plant response rating, Goosegrass",[5]; [23],98
same,"Plant response rating, Goosegrass",[5]; [24],98
same,"Plant response rating, Goosegrass",[5]; [25],100
same,Goosegrass plant response rating,[5]; [26],100
same,"Plant response rating, Bermudagrass",[6]; [19],75
same,Bermudagrass plant response rating (0 to 100 scale),[6]; [18],80
same,"Plant response rating, Bermudagrass",[6]; [21],95
same,"Plant response rating, Bermudagrass",[6]; [22],98
same,"Plant response rating, Bermudagrass",[6]; [24],98
same,"Plant response rating, Bermudagrass",[6]; [25],100
same,Bermudagrass plant response rating,"[6]; Preemergence, 250 g ai/ha, 0 to 100 scale, 0 no effect, 100 complete control",100
same,"Plant response rating, Wheat",[7]; [19],5
same,Wheat plant response rating (0 to 100 scale),[7]; [20],5
same,"Plant response rating, Wheat",[7]; [21],30
same,"Plant response rating, Wheat",[7]; [22],50
same,"Plant response rating, Wheat",[7]; [23],0
same,"Plant response rating, Wheat",[7]; [24],0
same,"Plant response rating, Wheat",[7]; [25],0
same,Wheat plant response rating,[7]; [26],0
same,"Plant response rating, Oat, Wild",wild oat (Avena fatua); [19],20
same,"Oat, Wild plant response rating (0 to 100 scale)",wild oat (Avena fatua); [20],20
same,"Plant response rating, Oat, Wild",wild oat (Avena fatua); [21],60
same,"Plant response rating, Oat, Wild",wild oat (Avena fatua); [22],80
same,"Plant response rating, Oat, Wild",wild oat (Avena fatua); [23],0
same,"Plant response rating, Oat, Wild",wild oat (Avena fatua); [24],0
same,"Plant response rating, Oat, Wild",wild oat (Avena fatua); [25],5
same,"Oat, Wild plant response rating",wild oat (Avena fatua); [26],5
same,"Plant response rating, Cocklebur",[8]; [19],20
same,Cocklebur plant response rating (0 to 100 scale),[8]; [20],85
same,"Plant response rating, Cocklebur",[8]; [21],90
same,"Plant response rating, Cocklebur",[8]; [22],95
same,"Plant response rating, Cocklebur",[8]; [23],10
same,"Plant response rating, Cocklebur",[8]; [24],45
same,"Plant response rating, Cocklebur",[8]; [25],70
same,Cocklebur plant response rating,[8]; [26],80
same,"Plant response rating, Morningglory",[9]; [19],60
same,Morningglory plant response rating (0 to 100 scale),[9]; [20],85
same,"Plant response rating, Morningglory",[9]; [21],95
same,"Plant response rating, Morningglory",[9]; [22],100
same,"Plant response rating, Morningglory",[9]; [23],10
same,"Plant response rating, Morningglory",[9]; [24],60
same,"Plant response rating, Morningglory",[9]; [25],75
same,Morningglory plant response rating,[9]; [26],80
same,"Plant response rating, Lambsquarters",[10]; [19],95
same,Lambsquarters plant response rating (0 to 100 scale),[10]; [20],95
same,"Plant response rating, Lambsquarters",[10]; [21],95
same,"Plant response rating, Lambsquarters",[10]; [22],98
same,"Plant response rating, Lambsquarters",[10]; [23],98
same,"Plant response rating, Lambsquarters",[10]; [24],98
same,"Plant response rating, Lambsquarters",[10]; [25],98
same,Lambsquarters plant response rating,[10]; [26],100
same,"Plant response rating, Nutsedge, Yellow",[11]; [19],20
same,"Nutsedge, Yellow plant response rating (0 to 100 scale)",[11]; [20],20
same,"Plant response rating, Nutsedge, Yellow",[11]; [21],70
same,"Plant response rating, Nutsedge, Yellow",[11]; [22],70
same,"Plant response rating, Nutsedge, Yellow",[11]; [23],20
same,"Plant response rating, Nutsedge, Yellow",[11]; [24],55
same,"Plant response rating, Nutsedge, Yellow",[11]; [25],65
same,"Nutsedge, Yellow plant response rating",[11]; [26],90
